Test results as given in US20250011365A1, “ECHINOCANDIN-BASED DRUG, AND PREPARATION METHOD THEREFOR AND USE THEREOF” (Shenzhen Sungening Biological Co., Ltd, priority 2023, published 2025).
Numbered stars: 1 amine (or outer) side, 2 acyl side, 3 side chain; on linkers, the order of the positions; unused ones are H or OH. Bridge positions count the residues as written; N and C are the ends. Square brackets hold non-standard residues; d marks the D form. Peptide text beside a SMILES is read from it. * marks the point of attachment. Orn(4R-OH,5R-OCH2CH2NMe3+) = C[N+](C)(C)CCO[C@@H](N[*:3])[C@H](O)C[C@H](N[*:1])C(=O)[*:2]; hTyr(3S-OH,4S-OH) = N[C@H](C(=O)O)[C@H](O)[C@@H](O)c1ccc(O)cc1; X1 = CCCCCOc1cc(F)c(C#Cc2ccc3cc(C(=O)*)ccc3c2)cc1F; Pro(3S-OH,4S-Me) = C[C@H]1CN[C@H](C(=O)O)[C@H]1O; Hyp = O=C(O)[C@@H]1C[C@@H](O)CN1

Experiments:
[1] = rat, in vivo, iv
[2] = test system: Pichia guilliermondii ATCC 6260; experiment: MIC assay, yeast-type fungi (CLSI M27-A3); format: cell-based; details: Meyerozyma guilliermondii, ATCC6260, 24 h, 35° C.
Protocol: (§1) After gradient dilution of test compounds, an MIC assay was performed on a Candida standard strain, and an MEC assay was performed on an Aspergillus standard strain. […] A cryopreserved strain was passaged at least 2 times. A single colony was picked and resuspended in a physiological saline or sterile water tube, and the tube was subjected to vortex shaking. The Candida suspension was adjusted to 0.5 McF (1×10^6-5×10^6 CFU/mL) at a wavelength of 530 nm by using a spectrophotometer. After being diluted 50 times with physiological saline, the Candida suspension was diluted 20 times with 1×RPMI 1640 broth (1×10^3-5×10^3 CFU/mL). 10 μL of the diluted Candida suspension was coated on an SDA plate for colony counting, with a range of about 10-50 single colonies. After a prepared drug sensitive plate was completely dissolved at room temperature, the Candida suspension was added to the 96-well plate by using a multi-channel pipettor at 100 μL/well. At this time, the concentration of Candida in each well should be 0.5×10^3-2.5×10^3 CFU/mL. A yeast-type fungus assay plate was placed in an incubator, and incubated for 24 h at 35° C. and 85% humidity, and then the MIC values were read. For echinocandin-based drugs, Aspergillus was incubated for 21-26 h at 28° C., and then the MEC results were read. Yeast-type fungi: A 96-well plate was attached with a disposable parafilm, shaken for uniformly mixing, and observed with naked eyes by using a plate reader microscope. […] Pictures were taken and saved by using an automated plate reader.

[3] = test system: Aspergillus fumigatus ATCC 204305; experiment: MEC assay, Aspergillus standard strain (CLSI M38-A2); format: cell-based; details: 21-26 h, 28° C.
Protocol: After gradient dilution of test compounds, an MIC assay was performed on a Candida standard strain, and an MEC assay was performed on an Aspergillus standard strain.
The colonies on the plate were covered with 0.85% physiological saline (1 mL) or sterile water (polysorbate 20 was added to a final concentration of 0.1%-0.01%). […] The resuspension of spore hyphae was transferred to a sterile test tube, and left to stand for 3-5 min to precipitate heavier particles. The homogeneous suspension on the upper layer was transferred to a new sterile test tube, and the tube was capped closely, and subjected to vortex shaking for 15 s (note: the suspension can produce an aerosol when the cap is reopened). The concentration of the suspension was adjusted to an OD value of 0.09-0.13 at 530 nm by using a spectrophotometer. […] Within 2 h after dilution, 100 μL of the diluted suspension was added to each well in a 96-well plate (the concentration of spores in the final drug sensitive plate should be 0.4×10^4-5×10^4 CFU/mL).
In order to accurately determine MEC value, vortex oscillation should not be allowed before reading the plate.

[4] = test system: Cryptococcus neoformans ATCC 208821; experiment: MIC assay, yeast-type fungi (CLSI M27-A3); format: cell-based; details: ATCC208821, 24 h, 35° C.
[5] = test system: Candida albicans ATCC 14053; experiment: MIC assay, Candida standard strain (CLSI M27-A3); format: cell-based; details: ATCC14053, 24 h, 35° C.
Protocol: as §1

[6] = test system: Candida albicans ATCC 18804; experiment: MIC assay, Candida standard strain (CLSI M27-A3); format: cell-based; details: ATCC18804, 24 h, 35° C.
Protocol: as §1

[7] = test system: C. parapsilosis ATCC 22019; experiment: MIC assay, Candida standard strain (CLSI M27-A3); format: cell-based; details: Lodderomyces parapsilosis, ATCC22019; C. parapsilosis ATCC 22019 (quality-control strain); 24 h, 35° C.
Protocol: as §1

[8] = test system: Candida albicans ATCC 10231; experiment: MIC assay, Candida standard strain (CLSI M27-A3); format: cell-based; details: ATCC10231, 24 h, 35° C., >50% growth inhibition
Protocol: as §1

[9] = test system: C. tropicalis ATCC 750; experiment: MIC assay, Candida standard strain (CLSI M27-A3); format: cell-based; details: ATCC750, 24 h, 35° C.
Protocol: as §1

[10] = test system: C. glabrata ATCC 15126; experiment: MIC assay, Candida standard strain (CLSI M27-A3); format: cell-based; details: Nakaseomyces glabratus, ATCC15126, 24 h, 35° C.
Protocol: as §1

[11] = test system: Candida albicans ATCC 64124; experiment: MIC assay, Candida standard strain (CLSI M27-A3); format: cell-based; details: ATCC64124, 24 h, 35° C.
Protocol: as §1

[12] = test system: Candida albicans ATCC 90028; experiment: MIC assay, Candida standard strain (CLSI M27-A3); format: cell-based; details: ATCC90028, 24 h, 35° C., >50% growth inhibition
Protocol: as §1

[13] = test system: Candida albicans ATCC MYA-2876; experiment: MIC assay, Candida standard strain (CLSI M27-A3); format: cell-based; details: 24 h, 35° C.
Protocol: as §1

[14] = test system: Candida albicans CICC 1943; experiment: MIC assay, Candida standard strain (CLSI M27-A3); format: cell-based; details: CICC1943, 24 h, 35° C.
Protocol: as §1

[15] = test system: Candida albicans ATCC 90029; experiment: MIC assay, Candida standard strain (CLSI M27-A3); format: cell-based; details: ATCC90029, 24 h, 35° C.
Protocol: as §1

[16] = test system: C. krusei ATCC 6258; experiment: MIC assay, Candida standard strain (CLSI M27-A3); format: cell-based; details: Pichia kudriavzevii, ATCC6258; C. krusei ATCC 6258 (quality-control strain); 24 h, 35° C.
Protocol: as §1

[17] = test system: Candida albicans ATCC MYA-4788; experiment: MIC assay, Candida standard strain (CLSI M27-A3); format: cell-based; details: 24 h, 35° C.
Protocol: as §1

[18] = test system: Candida albicans ATCC MYA-1023; experiment: MIC assay, Candida standard strain (CLSI M27-A3); format: cell-based; details: 24 h, 35° C.
Protocol: as §1

[19] = test system: Candida albicans CMCC 98001; experiment: MIC assay, Candida standard strain (CLSI M27-A3); format: cell-based; details: CMCC98001, 24 h, 35° C.
Protocol: as §1

[20] = test system: Candida albicans ATCC MYA-574; experiment: MIC assay, Candida standard strain (CLSI M27-A3); format: cell-based; details: 24 h, 35° C.
Protocol: as §1

[21] = test system: Candida albicans ATCC 76485; experiment: MIC assay, Candida standard strain (CLSI M27-A3); format: cell-based; details: ATCC76485, 24 h, 35° C.
Protocol: as §1

[22] = test system: Candida albicans ATCC MYA-427; experiment: MIC assay, Candida standard strain (CLSI M27-A3); format: cell-based; details: 24 h, 35° C.
Protocol: as §1

[23] = in vivo; details: SD, rat, iv

## CCCCCOc1cc(F)c(C#Cc2ccc3cc(C(=O)N[C@H]4C[C@@H](O)[C@@H](OCC[N+](C)(C)C)NC(=O)[C@@H]5[C@@H](O)[C@@H](C)CN5C(=O)[C@H]([C@@H](C)O)NC(=O)[C@H]([C@H](O)[C@@H](O)c5ccc(O)cc5)NC(=O)[C@@H]5C[C@@H](O)CN5C(=O)[C@H]([C@@H](C)O)NC4=O)ccc3c2)cc1F [Example 16] (X1-[Orn(4R-OH,5R-OCH2CH2NMe3+)]T[Hyp][hTyr(3S-OH,4S-OH)]T[Pro(3S-OH,4S-Me)]; lactam 1-C)
[1]
  drug exposure level (Cmax and AUC) and half-life (T1/2) in the blood plasma compared with rezafungin: significantly higher
[2]
  MIC: 0.25 µg/mL
[3]
  MEC: ≤0.015 µg/mL
[4]
  MIC: 8 µg/mL
[5]
  MIC: ≤ 0.015 µg/mL
[6]
  MIC: ≤ 0.015 µg/mL
[7]
  MIC: 0.5 µg/mL
[8]
  MIC: 0.03 µg/mL
[9]
  MIC: ≤ 0.015 µg/mL
[10]
  MIC: 0.06 µg/mL
[11]
  MIC: ≤ 0.015 µg/mL
[12]
  MIC: 0.03 µg/mL
[13]
  MIC: ≤ 0.015 µg/mL
[14]
  MIC: 0.03 µg/mL
[15]
  MIC: ≤ 0.015 µg/mL
[16]
  MIC: 0.06 µg/mL
[17]
  MIC: ≤ 0.015 µg/mL
[18]
  MIC: ≤ 0.015 µg/mL
[19]
  MIC: ≤ 0.015 µg/mL
[20]
  MIC: ≤ 0.015 µg/mL
[21]
  MIC: ≤ 0.015 µg/mL
[22]
  MIC: 0.03 µg/mL
[23]; 2.5 mg/kg
  AUC(0-inf): 275 µg·h/mL
  AUC(0-t): 206 µg·h/mL
  Cmax: 6080 ng/mL
  MRT last: 26.1 h
  Vd: 0.49 L/kg
  clearance: 0.15 mL/min/kg
  half-life: 37.3 h
[23]; 5 mg/kg
  AUC(0-inf): 424 µg·h/mL
  AUC(0-t): 326 µg·h/mL
  Cmax: 12000 ng/mL
  MRT last: 24.2 h
  Vd: 0.591 L/kg
  clearance: 0.2 mL/min/kg
  half-life: 34.8 h
